Experimental data reported in US20040063783A1, “Nitroso diphenylamine derivatives” (priority 2003, published 2004).

Tests used:
Type in all cases: biochemical
[1] = test system: human low molecular weight lipoproteins; assay: Prevention of cupric-ion oxidation of human low molecular weight lipoproteins (apoprotein B fluorescence), compounds of the formula II; settings: lipoproteins oxidized with cupric ions for 24 hours at 37° C, fluorescence excitation 360 nm, emission 460 nm
Protocol: In the test carried out, the human low molecular weight lipoproteins are oxidized with cupric ions for 24 hours at 37° C. The B apoprotein bome by these lipoproteins becomes fluorescent on oxidation (excitation at 360 nm, emission at 460 nm). In the presence of the compounds of the formula II, a decrease in fluorescence is noted, which reflects the antioxidant power of the compounds of the formula II. The results are expressed in the form of a 50% inhibitory concentration (IC50).

[2] = Spontaneous nitric oxide release: nitrites+nitrates titrated by colorimetry (Griess reagent, nitrate reductase); settings: test product final concentration 150 μM; 4 hours at 37° C; pH 7.5 PBS buffer; optical density at 540 nm
Protocol: A solution of a compound of the invention spontaneously releases nitric oxide. The nitrite ions resulting therefrom are titrated by colorimetry by means of a specific reagent (Griess). To take account of any release of nitrate ions in addition to the nitrite ions, bacterial nitrate reductase is added to the reaction medium to allow the nitrate ions formed to be reduced.
The reactions and measurements are carried out in transparent 96-well plates. The test products are dissolved at the time of use to a concentration of 3 mM in dimethyl sulfoxide. 95 μl of a reagent containing nitrate reductase (0.18U/ml in 100 mM pH 7.5 PBS buffer, 210 μM β-NADPH, 5 μM FAD) and 5 μl of a solution of the test product (final concentration of 150 μM) are then added to each well. After stirring, the mixture is left to incubate for 4 hours at 37° C. The reaction is then quenched by addition of 100 μl of the Griess reagent (Sigma G4410). The reagent is allowed to act for 5 minutes at room temperature and the optical density is then read at 540. nm. This value is proportional to the concentration of nitrites+nitrates in the medium. A calibration range is made for each plate using NaNO2.
The results are expressed as […] (μM) of nitrites+nitrates released, in Table 5 below.

Human LDLs = assay: Oxidation of human LDL in the presence of cupric ion (fluorescence), antioxidant effect; settings: human LDL 120 μg/ml, 100 μM CuCl2; difference of fluorescence readings at 2 h and 24 h, 37° C; from 3 product concentrations
Protocol: Human LDLs dissolved in aqueous solution in the presence of cupric ion become spontaneously oxidized on their protein component, apolipoprotein B. This oxidation makes the particle fluorescent, which is exploited to measure a pharmacological effect.
The reactions and measurements are carried out in black 96-well plates, 10 μl of a solution of the test product dissolved in dimethyl sulfoxide are first mixed with 170 μl of a solution of human LDL at 120 μg/ml and 20 μl of 100 μM CuCl2. After stirring, the mixture is left to incubate for 2 hours at 37° C., and a first fluorescence reading is taken (excitation at 360 nm, reading at 460 nm). The mixture is then left to incubate for a further 22 hours, to take a second reading under the same conditions. The difference between the two values obtained is the measurement of the oxidation of the LDLs in solution. This difference is proportionately smaller the greater the antioxidant power of the test product. Probucol is used as reference product at 10 μM.
The concentrations which inhibit the oxidation by 50% (IC50) are produced from 3 product concentrations.

Row | Structure (SMILES) | IC50 [1] | Nitrates + nitrites [2] | IC50 (Human LDLs)
1 | CCn1nc(C)cc1C(=O)Nc1ccc(Nc2ccc(OC)cc2)cc1 | 8.3 µM | – | –
2 | CC(C)(C)c1cc(CC(=O)Nc2ccc(Nc3ccccc3)cc2)ccc1O | 4.8 µM | – | –
3 | O=S(=O)(/C=C/c1ccccc1)Nc1ccc(Nc2ccccc2)cc1 | 12.2 µM | – | –
4 | COc1ccc(Nc2ccc(NC(=O)c3cc([N+](=O)[O-])ccc3Oc3ccc(OC)cc3)cc2)cc1 | 8.8 µM | – | –
5 | COc1ccc(Nc2ccc(NC(=O)c3cccnc3Oc3ccc(Cl)cc3)cc2)cc1 | 3.6 µM | – | –
6 | COc1ccc(Nc2ccc(NC(=O)c3cnc(Cl)nc3)cc2)cc1 | 2.6 µM | – | –
7 | COc1ccc(Nc2ccc(NC(=O)Cc3cc(C(C)(C)C)c(O)c(C(C)(C)C)c3)cc2)cc1 | 2.8 µM | – | –
8 | COc1ccc(Nc2ccc(NC(=O)c3sc(S(C)(=O)=O)c4c3CCC=C4)cc2)cc1 | 7.3 µM | – | –
9 | COc1ccc(Nc2ccc(NC(=O)/C=C/c3ccccc3[N+](=O)[O-])cc2)cc1 | 13.3 µM | – | –
10 | COc1ccc(Nc2ccc(NC(=O)c3cc(C(C)(C)C)c(O)c(C(C)(C)C)c3)cc2)cc1 | 9.4 µM | – | –
11 | COc1ccc(Nc2ccc(NC(=O)c3cc4cccc(OC)c4oc3=O)cc2)cc1 | 8.7 µM | – | –
12 | CCCCCCc1ccc(C(=O)Nc2ccc(Nc3ccc(OC)cc3)cc2)s1 | 11.1 µM | – | –
13 | COc1ccc(Nc2ccc(NC(=O)c3cc(Cl)cnc3Cl)cc2)cc1 | 5.4 µM | – | –
14 | COc1ccc(Nc2ccc(NS(=O)(=O)c3cccc4cccnc34)cc2)cc1 | 8.7 µM | – | –
15 | COc1ccc(Nc2ccc(NC(=O)c3ccc[n+]([O-])c3)cc2)cc1 | 10.5 µM | – | –
16 | COc1ccc(Nc2ccc(NC(=O)OCc3ccccc3)cc2)cc1 [253 (formula II), Benzyl 4-[(4-methoxyphenyl)amino]phenylcarbamate] | 2 µM | – | –
17 | COc1ccc(N(N=O)c2ccc(NC(=O)c3cccnc3)cc2)cc1 [Example 1, N-nitroso[4-methoxyphenyl][4-(3-pyridylcarbonylamino)phenyl]amine] | – | 97 µM | 6.4 µM
18 | COc1ccc(N(N=O)c2ccc(NC(=O)c3cncnc3)cc2)cc1 [Example 4] | – | 84 µM | 5.4 µM
19 | O=NN(c1ccccc1)c1ccc(NS(=O)(=O)c2cccnc2)cc1 [Example 6] | – | 83 µM | 6.5 µM
20 | O=NN(c1ccccc1)c1ccc(NC(=O)Nc2ccccc2)cc1 [Example 8] | – | 44 µM | 5.4 µM
21 | COc1ccc(N(N=O)c2ccc(NC(=O)c3ccc(C#N)cc3)cc2)cc1 [Example 12] | – | 22 µM | 2.2 µM
22 | COc1ccc(N(N=O)c2ccc(NC(=O)c3cccc([N+](=O)[O-])c3)cc2)cc1 [Example 18] | – | 71 µM | 3.7 µM

Row | Structure (SMILES) | IC50 [1] | Nitrates + nitrites [2] | IC50 (Human LDLs)
23 | O=NN(c1ccccc1)c1ccc(NS(=O)(=O)c2ccccc2)cc1 [Example 45] | – | 62 µM | 3.2 µM
24 | O=NN(c1ccccc1)c1ccc(NC(=O)c2cccnc2)cc1 [Example 57] | – | 109 µM | 8.9 µM
25 | COc1ccc(N(N=O)c2ccc(NS(=O)(=O)c3ccc(OC)cc3)cc2)cc1 [Example 86] | – | 79 µM | 3.8 µM
26 | COc1ccc(N(N=O)c2ccc(NC(=O)OCc3ccccc3)cc2)cc1 [Example 253, Benzyl 4-[1-(4-methoxyphenyl)-2-oxohydrazino]phenylcarbamate] | – | 45 µM | 3.6 µM
27 | CC(C)(Sc1cc(C(C)(C)C)c(O)c(C(C)(C)C)c1)Sc1cc(C(C)(C)C)c(O)c(C(C)(C)C)c1 [Probucol, reference compound] | – | – | 6.4 µM
28 | COc1ccc(Nc2ccc(NC(=O)c3ccco3)cc2)cc1 [T=4-MeO—, X=H, A=CO, Y=2-furyl] | 8.4 µM | – | –
29 | COc1ccc(Nc2ccc(NC(=O)c3cccc(C(F)(F)F)c3)cc2)cc1 [T=4-MeO—, X=H, A=CO, Y=3-CF3—C6H4—] | 6.4 µM | – | –
30 | COc1ccc(Nc2ccc(NC(=O)c3cccnc3)cc2)cc1 [T=4-MeO—, X=H, A=CO, Y=3-pyridyl] | 3.8 µM | – | –
31 | COc1ccc(Nc2ccc(NC(=O)c3ccc(N(C)C)cc3)cc2)cc1 [T=4-MeO—, X=H, A=CO, Y=4-(CH3)2N—C6H4—] | 11.2 µM | – | –
32 | COc1ccc(Nc2ccc(NS(=O)(=O)c3ccc(OC)cc3)cc2)cc1 [T=4-MeO—, X=H, A=SO2, Y=4-MeO—C6H4—] | 5 µM | – | –
33 | CSc1ccc(Nc2ccc(NC(=O)c3ccccc3)cc2)cc1 [T=4-MeS—, X=H, A=CO, Y=C6H5] | 1.8 µM | – | –
34 | COc1ccc(Nc2ccc(NC(=O)c3cccc([N+](=O)[O-])c3)cc2)cc1 [T=4-Me—O—, X=H, A=CO, Y=3-NO2—C6H4—] | 6.5 µM | – | –
35 | COc1ccc(Nc2ccc(NC(=O)c3cncnc3)cc2)cc1 [T=4-Me—O—, X=H, A=CO, Y=5-pyrimidyl, 4-methoxy4′-[5-pyrimidinylcarbonylamino]diphenylamine] | 5.2 µM | – | –
36 | COc1ccc(Nc2ccc(NS(=O)(=O)c3cccnc3)cc2)cc1 [T=4-Me—O—, X=H, A=SO2, Y=3-pyridyl] | 7.9 µM | – | –
37 | O=S(=O)(Nc1ccc(Nc2ccccc2)cc1)c1cccs1 [T=H, X=H, A=SO2, Y=2-thienyl] | 3.3 µM | – | –
38 | CC(=O)Nc1ccc(S(=O)(=O)Nc2ccc(Nc3ccccc3)cc2)cc1Cl [T=H, X=H, A=SO2, Y=3-Cl,4-CH3CONH—C6H3—] | 13.4 µM | – | –
39 | O=S(=O)(Nc1ccc(Nc2ccccc2)cc1)c1cccc(F)c1 [T=H, X=H, A=SO2, Y=3-F—C6H4—] | 3.7 µM | – | –
40 | O=S(=O)(Nc1ccc(Nc2ccccc2)cc1)c1cccnc1 [T=H, X=H, A=SO2, Y=3-pyridyl] | 7.4 µM | – | –
41 | CC(=O)Nc1ccc(S(=O)(=O)Nc2ccc(Nc3ccccc3)cc2)cc1 [T=H, X=H, A=SO2, Y=4-CH3CONH—C6H4—] | 12.3 µM | – | –
42 | N#Cc1ccc(S(=O)(=O)Nc2ccc(Nc3ccccc3)cc2)cc1 [T=H, X=H, A=SO2, Y=4-CN—C6H4] | 11.8 µM | – | –
43 | O=[N+]([O-])c1ccc(S(=O)(=O)Nc2ccc(Nc3ccccc3)cc2)cc1 [T=H, X=H, A=SO2, Y=4-NO2—C6H4] | 4.3 µM | – | –
